Results reported in the supplement of paper PMC10307832.

How the values were obtained:
Assay in all cases: relative viability (nuclei count vs DMSO), 5 days (fraction); higher = more cells survive
RERF-LC-KJ = tested on: RERF-LC-KJ
Outline: (§1)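 Lung cancer cell lines in 1536-well plates got either a single drug or a fixed anchor-drug dose together with five library-drug doses (not always all listed) in √10 steps, by pin tool, on the day after seeding. Nuclei were counted after 5 days, and relative viability is the treated-to-vehicle ratio of nuclei counts. Values are medians of duplicate plates.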

NCI-H1915 = tested on: NCI-H1915
Outline: as §1

NCI-H1755 = tested on: NCI-H1755
Outline: as §1

LC-2-ad = tested on: LC-2-ad
Outline: as §1

SW 1573 = tested on: SW 1573
Outline: as §1

HOP-62 = tested on: HOP-62
Outline: as §1

PC-3 [JPC-3] = tested on: PC-3 [JPC-3]
Outline: as §1

NCI-H2342 = tested on: NCI-H2342
Outline: as §1

NCI-H2347 = tested on: NCI-H2347
Outline: as §1

NCI-H2126 = tested on: NCI-H2126
Outline: as §1

NCI-H2228 = tested on: NCI-H2228
Outline: as §1

NCI-H358 = tested on: NCI-H358
Outline: as §1

NCI-H1734 = tested on: NCI-H1734
Outline: as §1

HCC-15 = tested on: HCC-15
Outline: as §1

NCI-H522 = tested on: NCI-H522
Outline: as §1

LXF-289 = tested on: LXF-289
Outline: as §1

HCC-78 = tested on: HCC-78
Outline: as §1

A-427 = tested on: A-427
Outline: as §1

NCI-H647 = tested on: NCI-H647
Outline: as §1

NCI-H1975 = tested on: NCI-H1975
Outline: as §1

NCI-H1792 = tested on: NCI-H1792
Outline: as §1

SK-LU-1 = tested on: SK-LU-1
Outline: as §1

Question: Which relative viability (RERF-LC-KJ; first compound 0.08 µM) does the source give for `O=c1cc(-c2cccc3c2Sc2ccccc2S3)oc(N2CCOCC2)c1` + COc1cccc2cc(-c3nc([C@H]4CC[C@H](C(=O)O)CC4)n4ncnc(N)c34)[nH]c12 [OSI-027] (partner 0.5 µM) here?
Answer: 0.46

Question: What about the relative viability (RERF-LC-KJ; first compound 0.253 µM) of the same compound?
Answer: 0.54

Question: And the relative viability (RERF-LC-KJ; first compound 0.8 µM)?
Answer: 0.526

Question: What about the relative viability (RERF-LC-KJ; first compound 2.53 µM) of the same compound?
Answer: 0.499

Question: What about the relative viability (RERF-LC-KJ; first compound 8 µM) of the same compound?
Answer: 0.494

Question: What about the relative viability (NCI-H1915; first compound 0.08 µM) of the same compound?
Answer: 0.608

Question: What about the relative viability (NCI-H1915; first compound 0.253 µM) of the same compound?
Answer: 0.677

Question: And the relative viability (NCI-H1915; first compound 0.8 µM)?
Answer: 0.699

Question: And the relative viability (NCI-H1915; first compound 2.53 µM)?
Answer: 0.575

Question: And the relative viability (NCI-H1915; first compound 8 µM)?
Answer: 0.678

Question: And the relative viability (NCI-H1755; first compound 0.08 µM)?
Answer: 0.71

Question: And the relative viability (NCI-H1755; first compound 0.253 µM)?
Answer: 0.794

Question: What about the relative viability (NCI-H1755; first compound 0.8 µM) of the same compound?
Answer: 0.682

Question: And the relative viability (NCI-H1755; first compound 2.53 µM)?
Answer: 0.553

Question: And the relative viability (NCI-H1755; first compound 8 µM)?
Answer: 0.772

Question: And the relative viability (LC-2-ad; first compound 0.08 µM)?
Answer: 0.814

Question: And the relative viability (LC-2-ad; first compound 0.253 µM)?
Answer: 0.934

Question: And the relative viability (LC-2-ad; first compound 0.8 µM)?
Answer: 0.792

Question: What about the relative viability (LC-2-ad; first compound 2.53 µM) of the same compound?
Answer: 0.741

Question: And the relative viability (LC-2-ad; first compound 8 µM)?
Answer: 0.727

Question: And the relative viability (SW 1573; first compound 0.08 µM)?
Answer: 0.514

Question: And the relative viability (SW 1573; first compound 0.253 µM)?
Answer: 0.797

Question: What about the relative viability (SW 1573; first compound 0.8 µM) of the same compound?
Answer: 0.703

Question: What about the relative viability (SW 1573; first compound 2.53 µM) of the same compound?
Answer: 0.613

Question: And the relative viability (SW 1573; first compound 8 µM)?
Answer: 0.728

Question: And the relative viability (HOP-62; first compound 0.08 µM)?
Answer: 0.888

Question: And the relative viability (HOP-62; first compound 0.253 µM)?
Answer: 1.17

Question: And the relative viability (HOP-62; first compound 0.8 µM)?
Answer: 0.913

Question: What about the relative viability (HOP-62; first compound 2.53 µM) of the same compound?
Answer: 0.745

Question: And the relative viability (HOP-62; first compound 8 µM)?
Answer: 1.07

Question: And the relative viability (PC-3 [JPC-3]; first compound 0.08 µM)?
Answer: 0.763

Question: And the relative viability (PC-3 [JPC-3]; first compound 0.253 µM)?
Answer: 0.8

Question: And the relative viability (PC-3 [JPC-3]; first compound 0.8 µM)?
Answer: 0.783

Question: What about the relative viability (PC-3 [JPC-3]; first compound 2.53 µM) of the same compound?
Answer: 0.698

Question: What about the relative viability (PC-3 [JPC-3]; first compound 8 µM) of the same compound?
Answer: 0.787

Question: What about the relative viability (NCI-H2342; first compound 0.08 µM) of the same compound?
Answer: 0.569

Question: What about the relative viability (NCI-H2342; first compound 0.253 µM) of the same compound?
Answer: 0.607

Question: And the relative viability (NCI-H2342; first compound 0.8 µM)?
Answer: 0.545

Question: And the relative viability (NCI-H2342; first compound 2.53 µM)?
Answer: 0.594

Question: What about the relative viability (NCI-H2342; first compound 8 µM) of the same compound?
Answer: 0.568

Question: And the relative viability (NCI-H2347; first compound 0.08 µM)?
Answer: 0.421

Question: What about the relative viability (NCI-H2347; first compound 0.253 µM) of the same compound?
Answer: 0.454

Question: And the relative viability (NCI-H2347; first compound 0.8 µM)?
Answer: 0.297

Question: And the relative viability (NCI-H2347; first compound 2.53 µM)?
Answer: 0.431

Question: What about the relative viability (NCI-H2347; first compound 8 µM) of the same compound?
Answer: 0.297

Question: And the relative viability (NCI-H2126; first compound 0.08 µM)?
Answer: 0.672

Question: What about the relative viability (NCI-H2126; first compound 0.253 µM) of the same compound?
Answer: 0.813

Question: And the relative viability (NCI-H2126; first compound 0.8 µM)?
Answer: 0.581

Question: And the relative viability (NCI-H2126; first compound 2.53 µM)?
Answer: 0.535

Question: And the relative viability (NCI-H2126; first compound 8 µM)?
Answer: 0.828

Question: And the relative viability (NCI-H2228; first compound 0.08 µM)?
Answer: 0.554

Question: And the relative viability (NCI-H2228; first compound 0.253 µM)?
Answer: 0.719

Question: And the relative viability (NCI-H2228; first compound 0.8 µM)?
Answer: 0.538

Question: And the relative viability (NCI-H2228; first compound 2.53 µM)?
Answer: 0.389

Question: And the relative viability (NCI-H2228; first compound 8 µM)?
Answer: 0.544

Question: And the relative viability (NCI-H358; first compound 0.08 µM)?
Answer: 0.836

Question: And the relative viability (NCI-H358; first compound 0.253 µM)?
Answer: 0.999

Question: What about the relative viability (NCI-H358; first compound 0.8 µM) of the same compound?
Answer: 0.815

Question: What about the relative viability (NCI-H358; first compound 2.53 µM) of the same compound?
Answer: 0.807

Question: And the relative viability (NCI-H358; first compound 8 µM)?
Answer: 0.869

Question: What about the relative viability (NCI-H1734; first compound 0.08 µM) of the same compound?
Answer: 0.556

Question: What about the relative viability (NCI-H1734; first compound 0.253 µM) of the same compound?
Answer: 0.613

Question: What about the relative viability (NCI-H1734; first compound 0.8 µM) of the same compound?
Answer: 0.611

Question: What about the relative viability (NCI-H1734; first compound 8 µM) of the same compound?
Answer: 0.61

Question: And the relative viability (HCC-15; first compound 0.08 µM)?
Answer: 0.633

Question: And the relative viability (HCC-15; first compound 0.253 µM)?
Answer: 0.765

Question: And the relative viability (HCC-15; first compound 0.8 µM)?
Answer: 0.733

Question: What about the relative viability (HCC-15; first compound 2.53 µM) of the same compound?
Answer: 0.634

Question: What about the relative viability (HCC-15; first compound 8 µM) of the same compound?
Answer: 0.611

Question: What about the relative viability (NCI-H522; first compound 0.08 µM) of the same compound?
Answer: 0.765

Question: And the relative viability (NCI-H522; first compound 0.253 µM)?
Answer: 0.685

Question: What about the relative viability (NCI-H522; first compound 0.8 µM) of the same compound?
Answer: 0.722

Question: What about the relative viability (NCI-H522; first compound 2.53 µM) of the same compound?
Answer: 0.723

Question: And the relative viability (NCI-H522; first compound 8 µM)?
Answer: 0.803

Question: And the relative viability (LXF-289; first compound 0.08 µM)?
Answer: 0.812

Question: And the relative viability (LXF-289; first compound 0.253 µM)?
Answer: 0.811

Question: What about the relative viability (LXF-289; first compound 0.8 µM) of the same compound?
Answer: 0.871

Question: And the relative viability (LXF-289; first compound 2.53 µM)?
Answer: 0.697

Question: What about the relative viability (LXF-289; first compound 8 µM) of the same compound?
Answer: 0.87

Question: What about the relative viability (HCC-78; first compound 0.08 µM) of the same compound?
Answer: 0.341

Question: What about the relative viability (HCC-78; first compound 0.253 µM) of the same compound?
Answer: 0.385

Question: What about the relative viability (HCC-78; first compound 0.8 µM) of the same compound?
Answer: 0.295

Question: And the relative viability (HCC-78; first compound 2.53 µM)?
Answer: 0.344

Question: And the relative viability (HCC-78; first compound 8 µM)?
Answer: 0.339

Question: What about the relative viability (A-427; first compound 0.08 µM) of the same compound?
Answer: 0.48

Question: What about the relative viability (A-427; first compound 0.253 µM) of the same compound?
Answer: 0.48

Question: What about the relative viability (A-427; first compound 0.8 µM) of the same compound?
Answer: 0.573

Question: And the relative viability (A-427; first compound 8 µM)?
Answer: 0.475

Question: And the relative viability (NCI-H647; first compound 0.08 µM)?
Answer: 0.636

Question: What about the relative viability (NCI-H647; first compound 0.253 µM) of the same compound?
Answer: 0.813

Question: And the relative viability (NCI-H647; first compound 0.8 µM)?
Answer: 0.588

Question: And the relative viability (NCI-H647; first compound 2.53 µM)?
Answer: 0.513

Question: And the relative viability (NCI-H647; first compound 8 µM)?
Answer: 0.623

Question: And the relative viability (NCI-H1975; first compound 0.08 µM)?
Answer: 0.74

Question: And the relative viability (NCI-H1975; first compound 0.253 µM)?
Answer: 0.993

Question: What about the relative viability (NCI-H1975; first compound 0.8 µM) of the same compound?
Answer: 0.793

Question: What about the relative viability (NCI-H1975; first compound 2.53 µM) of the same compound?
Answer: 0.587

Question: What about the relative viability (NCI-H1975; first compound 8 µM) of the same compound?
Answer: 0.503

Question: What about the relative viability (NCI-H1792; first compound 0.08 µM) of the same compound?
Answer: 0.775

Question: And the relative viability (NCI-H1792; first compound 0.253 µM)?
Answer: 0.803

Question: And the relative viability (NCI-H1792; first compound 0.8 µM)?
Answer: 0.663

Question: What about the relative viability (NCI-H1792; first compound 2.53 µM) of the same compound?
Answer: 0.647

Question: What about the relative viability (NCI-H1792; first compound 8 µM) of the same compound?
Answer: 0.581

Question: What about the relative viability (SK-LU-1; first compound 0.08 µM) of the same compound?
Answer: 0.322

Question: What about the relative viability (SK-LU-1; first compound 0.253 µM) of the same compound?
Answer: 0.375

Question: And the relative viability (SK-LU-1; first compound 0.8 µM)?
Answer: 0.335

Question: And the relative viability (SK-LU-1; first compound 2.53 µM)?
Answer: 0.364

Question: What about the relative viability (SK-LU-1; first compound 8 µM) of the same compound?
Answer: 0.301
